Data published in patent US20240228488A1 (TAKEDA PHARMACEUTICAL COMPANY LIMITED, priority 2021, published 2024).

Key:
[1] = target: human activated kallikrein enzyme (Homo sapiens, UniProt P03952); experiment: Plasma kallikrein inhibition, fluorogenic PFR-AMC substrate, 500 pM activated kallikrein format; assay type: biochemical; conditions: 500 pM activated kallikrein, 300 uM PFR-AMC, 30 min preincubation, 10 min reaction; read-out: Primary Dose Response Assay: Average EC50
Summary of the method: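 High-enzyme format of the fluorogenic peptide assay, with EC50 taken from AMC signal: 500 pM activated kallikrein, 300 uM Pro-Phe-Arg-AMC, 30 min compound preincubation and 10 min reaction, all at room temperature, pH 7.5.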

plasma kallikrein = target: T1, plasma kallikrein (Homo sapiens, UniProt P03952); experiment: Neat human plasma assay, FXIIa contact pathway-activated, PFR-AMC substrate; assay type: biochemical; conditions: citrated human plasma 78% final, 10 nM human FXIIa, 100 μM PFR-AMC; read-out: Human Plasma Assay: IC90
T1 construct: from tissue
T1 sequence (P03952 391-638 limits assumed): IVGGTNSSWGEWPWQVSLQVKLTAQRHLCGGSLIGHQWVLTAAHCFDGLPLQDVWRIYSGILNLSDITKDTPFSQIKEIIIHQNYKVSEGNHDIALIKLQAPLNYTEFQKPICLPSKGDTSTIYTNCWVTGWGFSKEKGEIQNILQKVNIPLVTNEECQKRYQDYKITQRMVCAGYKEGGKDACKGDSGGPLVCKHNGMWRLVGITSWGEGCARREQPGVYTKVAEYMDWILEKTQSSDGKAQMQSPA
T1 sequence (P03952 20-390 partner limits assumed): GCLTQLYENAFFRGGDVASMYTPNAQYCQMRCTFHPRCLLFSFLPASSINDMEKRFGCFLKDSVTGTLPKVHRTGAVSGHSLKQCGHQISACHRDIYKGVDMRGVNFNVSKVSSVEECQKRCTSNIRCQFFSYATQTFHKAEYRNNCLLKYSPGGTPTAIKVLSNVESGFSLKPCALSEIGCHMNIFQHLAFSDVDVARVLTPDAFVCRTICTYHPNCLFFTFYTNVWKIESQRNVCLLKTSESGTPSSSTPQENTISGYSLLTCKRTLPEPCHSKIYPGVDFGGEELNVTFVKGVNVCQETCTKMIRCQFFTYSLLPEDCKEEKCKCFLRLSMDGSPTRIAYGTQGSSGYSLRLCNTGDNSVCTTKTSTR
Protocol: To analyze inhibition of plasma kallikrein in an ex vivo setting, the potency of compounds was measure in contact pathway-activated plasma assays. In a fluorogenic peptide substrate assay, test compounds dissolved in DMSO were added to sodium citrate collected human or rat plasma in a 96-well microplate. Alternatively, citrated plasma was collected from rats administered the compounds orally or by IV. 10 nM of human FXIIa (Enzyme Research Laboratories) diluted in pKal buffer (20 mM Tris-HCl, pH 7.5, 150 mM NaCl, 1 mM EDTA, 0.1% PEG-8000, and 0.1% Triton X-100) was added to the plasma, followed by the 100 μM of the profluorescent, synthetic plasma kallikrein substrate PFR-AMC (also diluted in pKal buffer). Final plasma concentration in the reaction was 78%. Fluorescence was immediately monitored by excitation/emission wavelengths of 360 nm/480 nm respectively over a period of 5 minutes in a microplate reader. The resulting linear increase in fluorescence emission (reflecting pKal proteolysis of PFR-AMC substrate) was fit to extract a proteolytic rate (fluorescent units over time), and this rate was subsequently plotted against compound inhibitor concentration. Resulting plots were fit to a standard 4-parameter IC50/IC90 equation to determine min/max values, IC50/90, and slope. All experimental steps were performed at room temperature. Table 50 provides results of the assay.

Chain of human activated kallikrein enzyme (P03952 391-638 limits assumed): as the sequence (P03952 391-638 limits assumed) above
Chain of human activated kallikrein enzyme (P03952 20-390 partner limits assumed): as the sequence (P03952 20-390 partner limits assumed) above

Structure (SMILES)	EC50 [1] [nM]	IC90 (plasma kallikrein) [nM]
O=C(Nc1cc(NCc2cn3cc(C4CC4)ccc3n2)cnn1)[C@H]1C[C@@H]1c1cccc(Cl)c1 (racemic) [Example 101, rac-(1S*,2S*)-2-(3-chlorophenyl)-N-(5-(((6-cyclopropylimidazo[1,2-a]pyridin-2-yl)methyl)amino)pyridazin-3-yl)cyclopropane-1-carboxamide]	1 to 10	10000 to 48000
O=C(Nc1cc(NCc2cn3cc(C4CC4)ccc3n2)cc(CCN2CCOCC2)n1)[C@H]1C[C@@H]1c1cccc(Cl)c1 [Example 341, (1S,2S)-2-(3-chlorophenyl)-N-(4-(((6-cyclopropylimidazo[1,2-a]pyridin-2-yl)methyl)amino)-6-(2-morpholinoethyl)pyridin-2-yl)cyclopropane-1-carboxamide]	1 to 10	1500 to 10000
Cc1ccnc([C@H]2C[C@@H]2C(=O)Nc2cc(NCc3cn4cc(C5(F)CC5)cc(N5CC(=O)N(C)C5=O)c4n3)ncn2)n1 [Example 374, (1S,2S)-N-(6-(((6-(1-fluorocyclopropyl)-8-(3-methyl-2,4-dioxoimidazolidin-1-yl)imidazo[1,2-a]pyridin-2-yl)methyl)amino)pyrimidin-4-yl)-2-(4-methylpyrimidin-2-yl)cyclopropane-1-carboxamide]	< 1	< 400
Cc1ccnc([C@H]2C[C@@H]2C(=O)Nc2cc(NCc3cn4cc(C5CC5)cc(N5CC(=O)N(C)C5=O)c4n3)ncn2)c1 (racemic) [Example 393, rac-(1S*,2S*)-N-(6-(((6-cyclopropyl-8-(3-methyl-2,4-dioxoimidazolidin-1-yl)imidazo[1,2-a]pyridin-2-yl)methyl)amino)pyrimidin-4-yl)-2-(4-methylpyridin-2-yl)cyclopropane-1-carboxamide]	< 1	400 to 1500
CN1CCN(c2cc(C3CC3)cn3cc(CNc4cc(NC(=O)[C@H]5C[C@@H]5c5cccc(Cl)c5)ncn4)nc23)CC1 [Example I-2, (1S,2S)-2-(3-chlorophenyl)-N-(6-(((6-cyclopropyl-8-(4-methylpiperazin-1-yl)imidazo[1,2-a]pyridin-2-yl)methyl)amino)pyrimidin-4-yl)cyclopropane-1-carboxamide]	< 1	400 to 1500
Cc1ccnc([C@H]2C[C@@H]2C(=O)Nc2cc(NCc3cn4cc(C5CC5)cc(N5CC(=O)N(C6CC6)C5=O)c4n3)ncn2)n1 [Example 384, (1S,2S)-N-(6-(((6-cyclopropyl-8-(3-cyclopropyl-2,4-dioxoimidazolidin-1-yl)imidazo[1,2-a]pyridin-2-yl)methyl)amino)pyrimidin-4-yl)-2-(4-methylpyrimidin-2-yl)cyclopropane-1-carboxamide]	< 1	< 400
CN1CCN(c2cc(C3CC3)cn3cc(CNc4cc(NC(=O)[C@H]5C[C@@H]5c5cccc(Cl)c5)ncn4)nc23)CC1CO (stereo partly drawn) [Example I-7, (1S,2S)-2-(3-chlorophenyl)-N-(6-(((6-cyclopropyl-8-(3-(hydroxymethyl)-4-methylpiperazin-1-yl)imidazo[1,2-a]pyridin-2-yl)methyl)amino)pyrimidin-4-yl)cyclopropane-1-carboxamide]	1 to 10	400 to 1500
Cc1ccnc([C@H]2C[C@@H]2C(=O)Nc2ncnc(NCc3cn4cc(C5CC5)cc(N5CC(=O)N(C)C5=O)c4n3)n2)n1 (racemic) [Example 623, rac-(1S*,2S*)—N-(4-(((6-cyclopropyl-8-(3-methyl-2,4-dioxoimidazolidin-1-yl)imidazo[1,2-a]pyridin-2-yl)methyl)amino)-1,3,5-triazin-2-yl)-2-(4-methylpyrimidin-2-yl)cyclo propane-1-carboxamide]	< 1	< 400
O=C(Nc1cc(NCc2cn3cc(C4CC4)cc(N4CC5CC5C4=O)c3n2)ccn1)[C@H]1C[C@@H]1c1cccc(Cl)c1 (stereo partly drawn) [Example 95, (S,2S)-2-(3-chlorophenyl)-N-(4-(((6-cyclopropyl-8-(2-oxo-3-azabicyclo[3.1.0]hexan-3-yl)imidazo[1,2-a]pyridin-2-yl)methyl)amino)pyridin-2-yl)cyclopropane-1-carboxamide]	< 1	1500 to 10000
Cc1ccnc([C@H]2C[C@@H]2C(=O)Nc2cc(NCc3cn4cc(C5CC5)cc(N5CC(=O)N(C)C5=O)c4n3)nc(C(F)F)n2)n1 (racemic) [Example 411, rac-(1S*,2S*)-N-(6-(((6-cyclopropyl-8-(3-methyl-2,4-dioxoimidazolidin-1-yl)imidazo[1,2-a]pyridin-2-yl)methyl)amino)-2-(difluoromethyl)pyrimidin-4-yl)-2-(4-methylpyrimidin-2-yl)cyclopropane-1-carboxamide]	< 1	< 400

Continued, values first:

EC50 [1] [nM]	IC90 (plasma kallikrein) [nM]	Structure (SMILES)
< 1	1500 to 10000	CC(=O)c1cc(C2CC2)cn2cc(CNc3ccnc(NC(=O)[C@H]4C[C@@H]4c4cccc(Cl)c4)c3)nc12 [Example I-237, (1S,2S)-N-(4-(((8-acetyl-6-cyclopropylimidazo[1,2-a]pyridin-2-yl)methyl)amino)pyridin-2-yl)-2-(3-chlorophenyl)cyclopropane-1-carboxamide]
< 1	< 400	Cc1ccnc([C@H]2C[C@@H]2C(=O)Nc2ncc(C(F)(F)F)c(NCc3cn4cc(C5CC5)cc(N5CC(=O)N(C)C5=O)c4n3)n2)n1 (racemic) [Example 518, rac-(1S*,2S*)-N-(4-(((6-cyclopropyl-8-(3-methyl-2,4-dioxoimidazolidin-1-yl)imidazo[1,2-a]pyridin-2-yl)methyl)amino)-5-(trifluoromethyl)pyrimidin-2-yl)-2-(4-methylpyrimidin-2-yl)cyclopropane-1-carboxamide]
< 1	400 to 1500	COC(=O)CN1C(=O)CN(c2cc(C3CC3)cn3cc(COc4cc(NC(=O)[C@H]5C[C@@H]5c5nccc(C)n5)nc(C)n4)nc23)C1=O [Example 550, methyl 2-(3-(6-cyclopropyl-2-(((2-methyl-6-((1S,2S)-2-(4-methylpyrimidin-2-yl)cyclopropane-1-carboxamido)pyrimidin-4-yl)oxy)methyl)imidazo[1,2-a]pyridin-8-yl)-2,5-dioxoimidazolidin-1-yl)acetate]
< 1	< 400	[2H]C([2H])(Nc1cc(NC(=O)[C@H]2C[C@@H]2c2nccc(C)n2)ncn1)c1cn2cc(C3CC3)cc(N3CC(=O)N(C)C3=O)c2n1 (racemic) [Example 391, rac-(1S*,2S*)-N-(6-(((6-cyclopropyl-8-(3-methyl-2,4-dioxoimidazolidin-1-yl)imidazo[1,2-a]pyridin-2-yl)methyl-d2)amino)pyrimidin-4-yl)-2-(4-methylpyrimidin-2-yl)cyclopropane-1-carboxamide]
< 1	400 to 1500	Cc1ccnc([C@H]2C[C@@H]2C(=O)Nc2nccc(N3C[C@@H](O)C[C@@H]3c3cn4cc(C5CC5)cc(N5CC(=O)N(C)C5=O)c4n3)n2)n1 (relative stereo) [Example 541, rac-(1S*,2S*)—N-(4-((2R,4S)-2-(6-cyclopropyl-8-(3-methyl-2,4-dioxoimidazolidin-1-yl)imidazo[1,2-a]pyridin-2-yl)-4-hydroxypyrrolidin-1-yl)pyrimidin-2-yl)-2-(4-methylpyrimidin-2-yl)cyclopropane-1-carboxamide]
< 1	400 to 1500	Cc1ccnc([C@H]2C[C@@H]2C(=O)Nc2cc(N3C[C@@H](O)C[C@@H]3c3cn4cc(C5CC5)cc(N5CC6CC6C5=O)c4n3)ncn2)n1 (relative stereo) [Example 482, rac-(1S*,2S*)—N-(6-((2R,4S)-2-(6-cyclopropyl-8-(2-oxo-3-azabicyclo[3.1.0]hexan-3-yl)imidazo[1,2-a]pyridin-2-yl)-4-hydroxypyrrolidin-1-yl)pyrimidin-4-yl)-2-(4-methylpyrimidin-2-yl)cyclopropane-1-carboxamide]
< 1	1500 to 10000	O=C(Nc1cc(NCc2cn3cc(C4CC4)cc(C4(O)COC4)c3n2)ccn1)[C@H]1C[C@@H]1c1cccc(Cl)c1 (racemic) [Example I-242, rac-(1S*,2S*)-2-(3-chlorophenyl)-N-(4-(((6-cyclopropyl-8-(3-hydroxyoxetan-3-yl)imidazo[1,2-a]pyridin-2-yl)methyl)amino)pyridin-2-yl)cyclopropane-1-carboxamide]
< 1	400 to 1500	Cc1cc(NCc2cn3cc(C4CC4)cc(N4CCN(C)CC4)c3n2)cc(NC(=O)[C@H]2C[C@@H]2c2cccc(Cl)c2)n1 [Example 605, (1S,2S)-2-(3-chlorophenyl)-N-(4-(((6-cyclopropyl-8-(4-methylpiperazin-1-yl)imidazo[1,2-a]pyridin-2-yl)methyl)amino)-6-methylpyridin-2-yl)cyclopropane-1-carboxamide]
